Legend:
[1] = molecular target: M3 (Homo sapiens, UniProt P20309); test: PDSP secondary radioligand displacement assay, Ki; assay type: binding
Text: (§1) Thirteen analogs, in addition to ibogamine itself (Figure ), were submitted to the PDSP for biological evaluation. Primary radioligand displacement assays were run on 44 neurotransmitter receptors and transporters to give a snapshot of the receptor affinity for each ligand.

[2] = molecular target: T1, M2 (Homo sapiens, UniProt P08172); test: PDSP secondary radioligand displacement assay, Ki; assay type: binding
T1 sequence (P08172 1-466): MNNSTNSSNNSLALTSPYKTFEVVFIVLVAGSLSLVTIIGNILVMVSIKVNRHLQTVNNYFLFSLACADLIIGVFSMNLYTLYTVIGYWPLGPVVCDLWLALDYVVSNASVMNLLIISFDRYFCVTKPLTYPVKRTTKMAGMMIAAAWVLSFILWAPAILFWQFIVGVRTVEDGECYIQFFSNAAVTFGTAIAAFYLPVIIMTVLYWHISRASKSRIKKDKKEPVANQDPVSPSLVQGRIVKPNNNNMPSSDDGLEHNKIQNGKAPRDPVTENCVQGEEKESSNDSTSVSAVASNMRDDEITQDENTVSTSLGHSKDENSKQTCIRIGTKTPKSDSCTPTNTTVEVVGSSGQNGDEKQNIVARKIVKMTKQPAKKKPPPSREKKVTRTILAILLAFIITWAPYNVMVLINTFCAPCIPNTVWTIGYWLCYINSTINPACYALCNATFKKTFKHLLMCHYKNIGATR
Text: as §1

[3] = molecular target: DAT (Homo sapiens, UniProt Q01959); test: PDSP secondary radioligand displacement assay, Ki; assay type: binding
DAT, sequence (Q01959 whole entry, species assumed): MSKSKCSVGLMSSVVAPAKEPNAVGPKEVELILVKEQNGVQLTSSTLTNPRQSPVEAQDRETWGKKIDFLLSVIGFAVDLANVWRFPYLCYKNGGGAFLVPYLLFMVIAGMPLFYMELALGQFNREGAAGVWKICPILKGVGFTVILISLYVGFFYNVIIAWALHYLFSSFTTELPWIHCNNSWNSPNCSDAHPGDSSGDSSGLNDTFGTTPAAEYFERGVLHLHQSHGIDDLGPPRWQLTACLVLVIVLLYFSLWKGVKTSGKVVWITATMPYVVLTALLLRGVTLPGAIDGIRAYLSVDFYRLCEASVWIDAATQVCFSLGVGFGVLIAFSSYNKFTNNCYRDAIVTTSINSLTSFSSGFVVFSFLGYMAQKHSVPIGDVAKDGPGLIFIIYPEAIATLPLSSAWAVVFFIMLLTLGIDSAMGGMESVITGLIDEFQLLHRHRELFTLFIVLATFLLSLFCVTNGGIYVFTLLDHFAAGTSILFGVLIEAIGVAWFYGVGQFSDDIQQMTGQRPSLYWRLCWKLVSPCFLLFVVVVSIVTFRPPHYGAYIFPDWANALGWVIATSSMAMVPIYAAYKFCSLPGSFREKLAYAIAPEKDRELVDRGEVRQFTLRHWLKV
Text: as §1

[4] = molecular target: T2, Alpha2A (Homo sapiens, UniProt P08913); test: PDSP secondary radioligand displacement assay, Ki; assay type: binding
T2 sequence (P08913 1-465): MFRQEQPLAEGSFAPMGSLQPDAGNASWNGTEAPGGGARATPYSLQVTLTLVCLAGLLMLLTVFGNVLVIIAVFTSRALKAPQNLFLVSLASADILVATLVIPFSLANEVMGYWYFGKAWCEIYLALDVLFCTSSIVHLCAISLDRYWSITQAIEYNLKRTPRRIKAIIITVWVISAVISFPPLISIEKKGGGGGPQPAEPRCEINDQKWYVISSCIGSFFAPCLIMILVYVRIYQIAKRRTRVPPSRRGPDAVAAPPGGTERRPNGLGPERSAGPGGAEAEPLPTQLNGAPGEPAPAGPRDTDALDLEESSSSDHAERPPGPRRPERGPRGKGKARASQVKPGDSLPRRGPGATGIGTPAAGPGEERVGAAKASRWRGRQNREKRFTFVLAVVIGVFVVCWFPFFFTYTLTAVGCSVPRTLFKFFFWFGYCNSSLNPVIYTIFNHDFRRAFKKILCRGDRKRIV
Text: as §1

[5] = molecular target: Alpha1B (Homo sapiens, UniProt P35368); test: PDSP secondary radioligand displacement assay, Ki; assay type: binding
Text: as §1

[6] = molecular target: SERT (Homo sapiens, UniProt P31645); test: PDSP secondary radioligand displacement assay, Ki; assay type: binding; settings: supplement xlsx
SERT, sequence (P31645 whole entry, species assumed): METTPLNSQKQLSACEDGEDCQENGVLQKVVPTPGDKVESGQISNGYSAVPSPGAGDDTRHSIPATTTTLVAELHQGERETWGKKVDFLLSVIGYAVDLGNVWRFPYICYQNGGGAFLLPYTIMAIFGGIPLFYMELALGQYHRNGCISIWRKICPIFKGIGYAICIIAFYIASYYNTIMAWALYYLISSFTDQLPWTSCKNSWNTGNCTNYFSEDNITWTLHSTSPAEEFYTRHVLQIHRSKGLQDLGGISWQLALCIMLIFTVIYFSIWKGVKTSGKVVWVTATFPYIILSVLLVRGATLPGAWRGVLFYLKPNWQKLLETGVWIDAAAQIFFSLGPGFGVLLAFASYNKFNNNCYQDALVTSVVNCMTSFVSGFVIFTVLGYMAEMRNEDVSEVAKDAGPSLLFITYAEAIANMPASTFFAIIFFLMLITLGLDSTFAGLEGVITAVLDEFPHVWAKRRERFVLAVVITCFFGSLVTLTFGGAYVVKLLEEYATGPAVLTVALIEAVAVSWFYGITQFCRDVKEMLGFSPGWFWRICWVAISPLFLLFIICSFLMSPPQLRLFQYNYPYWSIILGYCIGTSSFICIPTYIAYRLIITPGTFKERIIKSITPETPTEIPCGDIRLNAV
Text: as §1

[7] = molecular target: KOR (Homo sapiens, UniProt P41145); test: PDSP secondary radioligand displacement assay, Ki; assay type: binding; settings: supplement xlsx
KOR, sequence (P41145 whole entry): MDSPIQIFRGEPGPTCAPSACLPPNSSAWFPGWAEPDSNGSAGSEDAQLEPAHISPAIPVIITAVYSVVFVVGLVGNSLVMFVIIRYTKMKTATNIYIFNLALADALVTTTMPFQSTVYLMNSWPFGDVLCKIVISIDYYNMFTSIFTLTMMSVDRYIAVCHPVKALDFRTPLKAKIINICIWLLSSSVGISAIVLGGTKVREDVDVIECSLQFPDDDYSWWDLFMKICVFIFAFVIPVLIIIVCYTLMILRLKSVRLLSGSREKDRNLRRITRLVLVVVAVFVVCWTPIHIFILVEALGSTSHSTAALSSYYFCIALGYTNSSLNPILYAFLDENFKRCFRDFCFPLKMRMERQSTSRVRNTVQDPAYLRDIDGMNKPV
Text: as §1

[8] = molecular target: T3, Alpha2C (Homo sapiens, UniProt P18825); test: PDSP secondary radioligand displacement assay, Ki; assay type: binding; settings: Ki values (nM) Alpha2C, supplement xlsx and text
T3 sequence (P18825 1-462): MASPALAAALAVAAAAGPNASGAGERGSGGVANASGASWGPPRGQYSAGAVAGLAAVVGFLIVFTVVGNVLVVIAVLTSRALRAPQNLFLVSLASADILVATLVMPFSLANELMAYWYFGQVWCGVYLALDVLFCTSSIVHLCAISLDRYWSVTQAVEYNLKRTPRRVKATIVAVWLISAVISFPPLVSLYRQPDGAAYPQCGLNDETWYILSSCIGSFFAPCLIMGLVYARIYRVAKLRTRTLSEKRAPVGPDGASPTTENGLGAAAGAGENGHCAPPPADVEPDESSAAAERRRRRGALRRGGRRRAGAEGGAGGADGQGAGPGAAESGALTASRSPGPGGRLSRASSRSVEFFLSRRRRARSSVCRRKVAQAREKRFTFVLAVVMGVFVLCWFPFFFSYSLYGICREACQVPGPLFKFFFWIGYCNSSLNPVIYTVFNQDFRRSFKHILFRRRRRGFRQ
Text: as §1

[9] = molecular target: NET (Homo sapiens, UniProt P23975); test: PDSP secondary radioligand displacement assay, Ki; assay type: binding
NET, sequence (P23975 whole entry): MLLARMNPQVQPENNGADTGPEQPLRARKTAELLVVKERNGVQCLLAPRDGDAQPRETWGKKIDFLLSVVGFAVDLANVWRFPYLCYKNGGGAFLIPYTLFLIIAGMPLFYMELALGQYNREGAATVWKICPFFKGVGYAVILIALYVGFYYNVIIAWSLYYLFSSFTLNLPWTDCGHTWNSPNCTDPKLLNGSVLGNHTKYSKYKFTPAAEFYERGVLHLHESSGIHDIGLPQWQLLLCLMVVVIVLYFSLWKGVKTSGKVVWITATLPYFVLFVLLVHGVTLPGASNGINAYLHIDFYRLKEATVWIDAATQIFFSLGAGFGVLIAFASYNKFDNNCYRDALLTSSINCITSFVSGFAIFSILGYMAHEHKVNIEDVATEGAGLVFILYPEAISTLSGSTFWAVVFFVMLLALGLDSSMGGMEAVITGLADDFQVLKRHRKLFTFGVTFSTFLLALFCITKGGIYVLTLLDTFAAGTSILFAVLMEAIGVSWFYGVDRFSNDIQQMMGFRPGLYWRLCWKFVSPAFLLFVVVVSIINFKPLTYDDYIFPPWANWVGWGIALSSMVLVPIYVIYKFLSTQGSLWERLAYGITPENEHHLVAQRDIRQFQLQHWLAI
Text: as §1

[10] = molecular target: MOR (Homo sapiens, UniProt P35372); test: PDSP secondary radioligand displacement assay, Ki; assay type: binding; settings: supplement xlsx
MOR, sequence (P35372 whole entry): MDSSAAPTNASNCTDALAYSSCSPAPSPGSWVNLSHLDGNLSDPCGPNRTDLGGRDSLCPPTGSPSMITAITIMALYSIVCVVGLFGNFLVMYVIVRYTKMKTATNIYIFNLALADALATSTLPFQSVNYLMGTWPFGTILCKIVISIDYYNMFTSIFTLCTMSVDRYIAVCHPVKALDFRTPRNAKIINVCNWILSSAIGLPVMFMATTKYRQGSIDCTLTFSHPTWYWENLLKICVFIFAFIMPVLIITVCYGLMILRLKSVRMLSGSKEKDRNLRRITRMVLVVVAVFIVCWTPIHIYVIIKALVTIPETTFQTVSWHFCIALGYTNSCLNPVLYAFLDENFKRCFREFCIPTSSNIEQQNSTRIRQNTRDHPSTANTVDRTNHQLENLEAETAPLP

[11] = molecular target: M5 (Homo sapiens, UniProt P08912); test: PDSP secondary radioligand displacement assay, Ki; assay type: binding
Text: as §1

[12] = molecular target: M4 (Homo sapiens, UniProt P08173); test: PDSP secondary radioligand displacement assay, Ki; assay type: binding; settings: supplement xlsx
Text: as §1

[13] = molecular target: S2R; parameters: method as in earlier work; settings: ref 30 (Bowen et al., 1995); read-out: affinity at S2R (Ki); cited from earlier work
[14] = molecular target: 5-HT1D (Homo sapiens, UniProt P28221); test: PDSP secondary radioligand displacement assay, Ki; assay type: binding; settings: supplement xlsx
5-HT1D, sequence (P28221 whole entry, species assumed): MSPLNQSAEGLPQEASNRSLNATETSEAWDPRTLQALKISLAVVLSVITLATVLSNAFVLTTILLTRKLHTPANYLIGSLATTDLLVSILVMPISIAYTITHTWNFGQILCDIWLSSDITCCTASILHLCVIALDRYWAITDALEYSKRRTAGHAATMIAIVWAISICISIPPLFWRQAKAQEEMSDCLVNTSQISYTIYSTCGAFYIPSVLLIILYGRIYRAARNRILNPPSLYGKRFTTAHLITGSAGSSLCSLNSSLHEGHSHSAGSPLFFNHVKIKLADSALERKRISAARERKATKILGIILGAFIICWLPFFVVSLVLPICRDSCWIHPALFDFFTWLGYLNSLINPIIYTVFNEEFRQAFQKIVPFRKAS
Text: as §1

[15] = molecular target: H3 (Homo sapiens, UniProt Q9Y5N1); test: PDSP secondary radioligand displacement assay, Ki; assay type: binding
H3, sequence (Q9Y5N1 whole entry): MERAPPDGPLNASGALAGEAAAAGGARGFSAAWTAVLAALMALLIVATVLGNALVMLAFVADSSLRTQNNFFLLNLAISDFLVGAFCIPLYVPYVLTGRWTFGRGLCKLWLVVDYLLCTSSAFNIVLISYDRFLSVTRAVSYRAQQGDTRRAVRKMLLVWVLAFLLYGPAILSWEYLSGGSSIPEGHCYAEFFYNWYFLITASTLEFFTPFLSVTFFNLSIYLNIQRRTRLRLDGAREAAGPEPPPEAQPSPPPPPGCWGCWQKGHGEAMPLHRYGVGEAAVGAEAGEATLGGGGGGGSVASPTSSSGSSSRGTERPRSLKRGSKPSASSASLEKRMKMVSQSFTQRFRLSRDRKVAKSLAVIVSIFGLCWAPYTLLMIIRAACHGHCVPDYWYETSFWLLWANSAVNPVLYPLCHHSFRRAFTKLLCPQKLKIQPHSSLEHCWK
Text: as §1

[16] = molecular target: 5-HT3 (Homo sapiens, UniProt P46098); test: PDSP secondary radioligand displacement assay, Ki; assay type: binding; settings: supplement xlsx
Text: as §1

[17] = molecular target: T4, Alpha2B (Homo sapiens, UniProt P18089); test: PDSP secondary radioligand displacement assay, Ki; assay type: binding; settings: supplement xlsx
T4 sequence (P18089 1-450): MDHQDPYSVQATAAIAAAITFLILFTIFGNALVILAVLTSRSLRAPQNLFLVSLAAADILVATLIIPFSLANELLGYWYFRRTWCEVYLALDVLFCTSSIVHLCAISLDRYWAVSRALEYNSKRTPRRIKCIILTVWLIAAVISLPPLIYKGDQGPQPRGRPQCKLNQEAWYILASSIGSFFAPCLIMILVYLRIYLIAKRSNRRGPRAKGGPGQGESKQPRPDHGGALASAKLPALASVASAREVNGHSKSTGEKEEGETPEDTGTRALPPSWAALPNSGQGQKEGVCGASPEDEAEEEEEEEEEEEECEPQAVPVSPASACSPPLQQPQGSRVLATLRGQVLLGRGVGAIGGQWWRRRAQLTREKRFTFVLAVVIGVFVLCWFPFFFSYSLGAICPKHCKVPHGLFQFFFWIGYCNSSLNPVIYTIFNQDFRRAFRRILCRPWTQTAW
Text: as §1

[18] = molecular target: 5-HT2A (Homo sapiens, UniProt P28223); test: PDSP secondary radioligand displacement assay, Ki; assay type: binding; settings: supplement xlsx
Text: as §1

[19] = molecular target: H4 (Homo sapiens, UniProt Q9H3N8); test: PDSP secondary radioligand displacement assay, Ki; assay type: binding; settings: supplement xlsx
H4, sequence (Q9H3N8 whole entry): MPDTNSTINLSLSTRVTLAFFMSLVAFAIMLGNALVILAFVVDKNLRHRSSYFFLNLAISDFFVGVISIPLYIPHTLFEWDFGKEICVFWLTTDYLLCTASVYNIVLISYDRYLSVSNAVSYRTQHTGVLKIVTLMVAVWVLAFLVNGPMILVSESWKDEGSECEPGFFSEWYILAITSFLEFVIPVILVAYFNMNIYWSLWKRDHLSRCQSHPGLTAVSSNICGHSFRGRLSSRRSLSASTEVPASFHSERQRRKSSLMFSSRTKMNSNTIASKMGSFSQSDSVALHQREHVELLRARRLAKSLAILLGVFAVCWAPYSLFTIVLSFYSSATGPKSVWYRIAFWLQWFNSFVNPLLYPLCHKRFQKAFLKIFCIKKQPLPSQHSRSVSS
Text: as §1

[20] = molecular target: M1 (Homo sapiens, UniProt P11229); test: PDSP secondary radioligand displacement assay, Ki; assay type: binding
Text: as §1

[21] = molecular target: H1 (Homo sapiens, UniProt P35367); test: PDSP secondary radioligand displacement assay, Ki; assay type: binding
H1, sequence (P35367 whole entry): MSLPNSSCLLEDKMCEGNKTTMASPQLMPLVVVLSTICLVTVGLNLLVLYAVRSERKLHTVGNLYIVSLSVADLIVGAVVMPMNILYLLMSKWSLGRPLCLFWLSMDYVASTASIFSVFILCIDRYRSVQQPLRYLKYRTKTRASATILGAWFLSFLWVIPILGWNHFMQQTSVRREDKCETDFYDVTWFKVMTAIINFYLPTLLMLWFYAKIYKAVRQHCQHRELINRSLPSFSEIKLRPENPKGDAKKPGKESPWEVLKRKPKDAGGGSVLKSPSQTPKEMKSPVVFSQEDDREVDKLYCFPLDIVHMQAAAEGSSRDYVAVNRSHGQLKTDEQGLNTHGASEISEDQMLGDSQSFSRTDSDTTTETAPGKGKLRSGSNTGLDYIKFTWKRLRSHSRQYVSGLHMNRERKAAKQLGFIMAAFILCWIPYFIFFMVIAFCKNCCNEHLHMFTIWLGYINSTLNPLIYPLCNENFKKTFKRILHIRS
Text: as §1

[22] = molecular target: D2 (Homo sapiens, UniProt P14416); test: PDSP secondary radioligand displacement assay, Ki; assay type: binding
Text: as §1

[23] = molecular target: D3 (Homo sapiens, UniProt P35462); test: PDSP secondary radioligand displacement assay, Ki; assay type: binding
Text: as §1

M3, sequence (P20309 whole entry): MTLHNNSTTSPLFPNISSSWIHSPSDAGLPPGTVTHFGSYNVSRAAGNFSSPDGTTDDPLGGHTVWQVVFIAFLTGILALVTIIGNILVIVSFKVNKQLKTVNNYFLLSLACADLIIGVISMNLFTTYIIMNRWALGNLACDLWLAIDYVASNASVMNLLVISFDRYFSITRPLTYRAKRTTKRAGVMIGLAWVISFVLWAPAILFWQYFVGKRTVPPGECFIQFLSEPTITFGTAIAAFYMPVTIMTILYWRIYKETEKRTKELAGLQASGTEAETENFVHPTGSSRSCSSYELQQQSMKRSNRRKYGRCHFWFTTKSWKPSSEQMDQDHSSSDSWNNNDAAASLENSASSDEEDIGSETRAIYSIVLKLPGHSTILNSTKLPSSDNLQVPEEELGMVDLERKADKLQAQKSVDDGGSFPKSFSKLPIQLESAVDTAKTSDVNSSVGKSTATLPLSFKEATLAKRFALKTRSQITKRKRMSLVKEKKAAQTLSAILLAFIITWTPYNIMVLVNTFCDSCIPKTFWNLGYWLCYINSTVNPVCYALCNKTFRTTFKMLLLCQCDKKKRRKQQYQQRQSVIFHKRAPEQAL

Row | Compound | Ki [1] | Ki [2] | Ki [4] | Ki [6] | Ki [7] | Ki [8] | Ki [10] | Ki [15] | also measured
1 | CCC1CC2CC3c4[nH]c5cc(F)ccc5c4CCN(C2)C13 (stereo not drawn) [7a] | 734 nM | 2690 nM | 4100 nM | 153 nM | 4770 nM | 623 nM |  |  | Ki [3]: 1320 nM; Ki [5]: 2090 nM; Ki [9]: 5700 nM
2 | CC(C)[C@H]1CC2CC3c4[nH]c5ccccc5c4CCN(C2)C31 (stereo partly drawn) [7h] | 414 nM |  |  | 709 nM | 995 nM |  | 3130 nM |  | Ki [3]: 2020 nM; Ki [11]: 1100 nM; Ki [12]: 416 nM
3 | CC[C@H]1C[C@@H]2C[C@H]3c4[nH]c5cc(OC)ccc5c4CC[N@@](C2)[C@@H]13 [tabernanthine (3), tabernanthine, reference compound] |  |  |  | 1300 nM | 319 nM |  |  | 2300 nM | Ki [13]: 194 nM; Ki [14]: 7660 nM
4 | CCC1C[C@H]2CC3c4[nH]c5ccccc5c4CCN(C2=O)C13 (stereo in doubt) [compound 22] |  |  |  | 1380 nM |  |  |  |  | 
5 | CCC1CC2CC3c4[nH]c5cc(Br)ccc5c4CCN(C2)C13 (stereo not drawn) [7c] | 1520 nM | 8030 nM | 1630 nM | 162 nM | 1040 nM | 71 nM | 4210 nM | 3320 nM | Ki [14]: 7460 nM; Ki [16]: 1400 nM; Ki [3]: 807 nM; Ki [17]: 1620 nM; Ki [9]: 1750 nM
6 | CCC1CC2CC3c4[nH]c5cc6c(cc5c4CCN(C2)C13)OCO6 (stereo not drawn) [7f] |  |  |  |  |  |  |  | 5410 nM | Ki [14]: > 10000 nM
7 | CCC1CC2CC3c4[nH]c5cc(Cl)ccc5c4CCN(C2)C13 (stereo not drawn) [7b] | 811 nM | 2940 nM | 1720 nM | 177 nM | 1400 nM | 1360 nM | 4450 nM | 2880 nM | Ki [16]: 1010 nM; Ki [17]: 2360 nM; Ki [18]: 3000 nM; Ki [9]: 1790 nM
8 | CCC1CC2CC3c4[nH]c5cc(C(F)(F)F)ccc5c4CCN(C2)C13 (stereo not drawn) [7e] | 1950 nM |  | 1420 nM | 206 nM | 1500 nM | 110 nM | 3810 nM | 2290 nM | Ki [19]: 3030 nM; Ki [20]: 4570 nM; Ki [17]: 1650 nM; Ki [18]: 1800 nM
9 | CCC1CC2CC3c4c(c5ccccc5n4CC=C(C)C)CCN(C2)C13 (stereo not drawn) [compound 23] |  |  |  |  |  |  | 6440 nM |  | Ki [21]: 1710 nM; Ki [22]: 2420 nM; Ki [23]: 249 nM
10 | C[C@H]1CC2CC3c4[nH]c5ccccc5c4CCN(C2)C31 (stereo partly drawn) [7g] |  |  |  | 371 nM |  |  |  |  | 
11 | ibogaine [ibogaine (2)] |  |  |  |  |  |  |  |  | Ki [13]: 201 nM
12 | c1ccc2c3c([nH]c2c1)C1CC2C[C@H](C4CCOCC4)C1N(CC3)C2 (stereo partly drawn) [7i] | 73.7 nM | 150 nM |  | 1710 nM |  |  | 1810 nM |  | Ki [21]: 882 nM; Ki [20]: 138 nM; Ki [11]: 224 nM; Ki [12]: 37.9 nM
13 | CC[C@H]1C[C@H]2C[C@H]3c4[nH]c5ccccc5c4CCN(C2)[C@@H]13 [ibogamine (1), ibogamine, reference compound] | 2460 nM |  |  | 272 nM |  |  | 2460 nM |  | Ki [13]: 137 nM
